Test results: ChEMBL document CHEMBL6109147, “Discovery of Potent STING Inhibitors Bearing a Difluorobenzodioxol Structural Motif as Potent Anti-Inflammatory Agents” (J Med Chem, 2025)
Activity calls are given as the source filed them.

How the values were obtained:
Mus musculus [1] = test: Anti-inflammatory activity in TREX1 D18N mouse model assessed as reduction in Isg15 mRNA expression in kidney at 10 mg/kg, ip measured after 2 weeks; format: functional, organism-based
[2] = Half life in Sprague-Dawley rat at 3 mg/kg, po; format: ADME, organism-based; details: in vivo
[3] = MRT (0 to infinity) in Sprague-Dawley rat at 3 mg/kg, po; format: ADME, organism-based; details: in vivo
[4] = Oral bioavailability in Sprague-Dawley rat at 3 mg/kg; format: ADME, organism-based; details: in vivo
[5] = Metabolic stability in mouse liver microsomes assessed as liver intrinsic clearance; format: ADME, Microsome
[6] = Metabolic stability in human liver microsomes assessed as liver intrinsic clearance; format: ADME, Microsome
[7] = molecular target: Stimulator of interferon genes protein (Homo sapiens) (UniProt Q86WV6); test: Inhibition of STING downstream signalling in human THP1-Dual cells assessed as inhibition of MSA-2 induced IP-10 secretion at 0.3 to 3 uM pre-treated for 1 hr followed by stimulated with MSA-2 measured after 24 hrs by ELISA; format: cell-based; details: dose 0.3-3 µM, time 25.0 hrs
[8] = molecular target: Stimulator of interferon genes protein (Homo sapiens) (UniProt Q86WV6); test: Inhibition of STING downstream signalling in human THP1-Dual cells assessed as inhibition of MSA-2 induced IP-10 mRNA expression at 0.3 to 3 uM pre-treated for 1 hr followed by stimulated with MSA-2 measured after 4 hrs by real-time PCR analysis; format: cell-based; details: dose 0.3-3 µM, time 5.0 hrs
[9] = molecular target: Stimulator of interferon genes protein (Homo sapiens) (UniProt Q86WV6); test: Inhibition of STING downstream signalling in human THP1-Dual cells assessed as inhibition of cGAMP induced IFN-beta secretion at 0.3 to 3 uM pre-treated for 1 hr followed by stimulated with cGAMP measured after 24 hrs by ELISA; format: cell-based; details: dose 0.3-3 µM, time 25.0 hrs
[10] = molecular target: Stimulator of interferon genes protein (Homo sapiens) (UniProt Q86WV6); test: Inhibition of STING downstream signalling in human THP1-Dual cells assessed as inhibition of cGAMP induced IP-10 secretion at 0.3 to 3 uM pre-treated for 1 hr followed by stimulated with cGAMP measured after 24 hrs by ELISA; format: cell-based; details: dose 0.3-3 µM, time 25.0 hrs
[11] = molecular target: Stimulator of interferon genes protein (Homo sapiens) (UniProt Q86WV6); test: Inhibition of STING downstream signalling in human THP1-Dual cells assessed as inhibition of HT-DNA induced IP-10 mRNA expression at 0.3 to 3 uM pre-treated for 1 hr followed by stimulated with HT-DNA measured after 4 hrs by real-time PCR analysis; format: cell-based; details: dose 0.3-3 µM, time 5.0 hrs
[12] = system: Stimulator of interferon genes protein (Homo sapiens), Q86WV6 [UNDEFINED MUTATION]; test: Inhibition of human STING expressed in 293T-Dual-hSTING-H232 cells assessed as reduction in cGAMP-induced secreted luciferase reporter of interferon stimulated gene (ISG) measured after 24 hrs incubation; format: cell-based
[13] = system: Stimulator of interferon genes protein (Homo sapiens), Q86WV6 [UNDEFINED MUTATION]; test: Inhibition of human STING expressed in 293T-Dual-hSTING-AQ cells assessed as reduction in cGAMP-induced secreted luciferase reporter of interferon stimulated gene (ISG) measured after 24 hrs incubation; format: cell-based
[14] = system: Stimulator of interferon genes protein (Homo sapiens), Q86WV6 [UNDEFINED MUTATION]; test: Inhibition of human STING expressed in 293T-Dual-hSTING-293Q cells assessed as reduction in cGAMP-induced secreted luciferase reporter of interferon stimulated gene (ISG) measured after 24 hrs incubation; format: cell-based
[15] = molecular target: T1, Stimulator of interferon genes protein (Mus musculus) (UniProt Q3TBT3); test: Inhibition of STING downstream signalling in mouse RAW264.7 cells assessed as inhibition of […] induced IP-10 secretion level at 0.3 to 3 uM pre-treated for 1 hr followed by stimulated with […] measured after 24 hrs by ELISA; format: cell-based; details: dose 0.3-3 µM, time 25.0 hrs
T1 sequence (whole entry): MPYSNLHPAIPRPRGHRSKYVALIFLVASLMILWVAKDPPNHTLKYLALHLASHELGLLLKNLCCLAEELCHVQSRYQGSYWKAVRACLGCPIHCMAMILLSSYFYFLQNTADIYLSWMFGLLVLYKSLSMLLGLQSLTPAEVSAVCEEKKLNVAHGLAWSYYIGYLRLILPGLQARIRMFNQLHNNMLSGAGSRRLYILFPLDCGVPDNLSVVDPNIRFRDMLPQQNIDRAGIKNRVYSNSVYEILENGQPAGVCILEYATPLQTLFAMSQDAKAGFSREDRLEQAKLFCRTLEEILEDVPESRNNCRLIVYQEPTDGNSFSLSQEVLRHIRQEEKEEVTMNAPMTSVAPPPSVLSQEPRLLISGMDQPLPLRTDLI

[16] = molecular target: T1, Stimulator of interferon genes protein (Mus musculus); test: Inhibition of STING downstream signalling in mouse RAW264.7 cells assessed as inhibition of […] induced Cxcl-10 mRNA level pre-treated for 1 hr followed by stimulated with […] measured after 4 hrs by real-time PCR analysis; format: cell-based; details: dose 0.3-3 µM, time 5.0 hrs
[17] = molecular target: T1, Stimulator of interferon genes protein (Mus musculus); test: Inhibition of STING downstream signalling in mouse BMDM cells assessed as inhibition of MSA-2 induced Ccl5 mRNA level pre-treated for 1 hr followed by stimulated with MSA-2 measured after 4 hrs by real-time PCR analysis; format: cell-based; details: dose 0.3-3 µM, time 5.0 hrs
Mus musculus [18] = test: Anti-inflammatory activity against MSA-2 induced C57BL/6 mouse inflammation model assessed as inhibition of MSA-2 induced IP-10 level in plasma at 10 mg/kg, ip pre-treated for 1 hr followed by stimulated with MSA-2 for 4 hrs by ELISA; format: functional, organism-based; details: time 5.0 hrs
Mus musculus [19] = test: Anti-inflammatory activity against MSA-2 induced C57BL/6 mouse inflammation model assessed as inhibition of MSA-2 induced IL-6 level in kidney at 10 mg/kg, ip pre-treated for 1 hr followed by stimulated with MSA-2 for 4 hrs by ELISA; format: functional, organism-based; details: time 5.0 hrs
Mus musculus [20] = test: Anti-inflammatory activity against MSA-2 induced C57BL/6 mouse inflammation model assessed as inhibition of MSA-2 induced Cxcl-10 mRNA expression in kidney at 10 mg/kg, ip pre-treated for 1 hr followed by stimulated with MSA-2 for 4 hrs by real-time PCR analysis; format: functional, organism-based; details: time 5.0 hrs
Mus musculus [21] = test: Anti-inflammatory activity against Cisplatin induced C57BL/6 mouse kidney inflammation model assessed as prevention of Cisplatin induced interstitial vacuolation at 5 mg/kg, ip treated for 3 days; format: functional, organism-based; details: time 3.0 day
HEK293 = test: Protection of Cisplatin induced apoptosis in human HEK293 cells assessed as apoptotic cells at 10 uM measured after 72 hrs by flow cytometry; format: functional, cell-based
Mus musculus [22] = test: Anti-inflammatory activity against Cisplatin induced C57BL/6 STING-KO mouse kidney inflammation model assessed as prevention of Cisplatin induced glomerular injury at 5 mg/kg, ip treated for 3 days; format: functional, organism-based; details: time 3.0 day
Mus musculus [23] = test: Prevention of body weight loss in Cisplatin induced C57BL/6 mouse kidney inflammation model at 5 mg/kg, ip treated for 3 days; format: functional, organism-based; details: time 3.0 day
Mus musculus [24] = test: Toxicity in TREX1 D18N mouse model assessed as change in body weight at 10 mg/kg, ip measured after 2 weeks; format: organism-based; details: in vivo, 336 h
Mus musculus [25] = test: Anti-inflammatory activity in TREX1 D18N mouse model assessed as reduction in Isg56 mRNA expression in kidney at 10 mg/kg, ip measured after 2 weeks; format: functional, organism-based
Mus musculus [26] = test: Anti-inflammatory activity in TREX1 D18N mouse model assessed as reduction in Isg56 mRNA expression in heart at 10 mg/kg, ip measured after 2 weeks; format: functional, organism-based
Mus musculus [27] = test: Anti-inflammatory activity in TREX1 D18N mouse model assessed as reduction in Ccl5 mRNA expression in heart at 10 mg/kg, ip measured after 2 weeks; format: functional, organism-based

Chain of Stimulator of interferon genes protein (Homo sapiens) (Q86WV6 whole entry): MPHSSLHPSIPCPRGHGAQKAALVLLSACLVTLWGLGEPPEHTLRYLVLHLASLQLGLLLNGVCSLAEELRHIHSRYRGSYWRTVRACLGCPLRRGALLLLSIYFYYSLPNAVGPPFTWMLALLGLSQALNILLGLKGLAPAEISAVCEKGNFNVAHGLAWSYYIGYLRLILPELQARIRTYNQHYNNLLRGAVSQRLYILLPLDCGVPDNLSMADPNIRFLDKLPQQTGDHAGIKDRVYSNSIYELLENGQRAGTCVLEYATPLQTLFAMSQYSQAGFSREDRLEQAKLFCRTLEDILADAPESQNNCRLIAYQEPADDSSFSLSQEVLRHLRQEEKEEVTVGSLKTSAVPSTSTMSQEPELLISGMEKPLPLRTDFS
Chain of Stimulator of interferon genes protein (Homo sapiens), Q86WV6 [UNDEFINED MUTATION] (Q86WV6 whole entry, looked up, change not shown): as the sequence (Q86WV6 whole entry) above

N#CC/C=C/c1ccc2[nH]cc(NC(=O)Nc3ccc4c(c3)OC(F)(F)O4)c2c1
36.9 µL/min/mg: CLH [6]
inactive: inhibition (Mus musculus [21]) | Activity (Mus musculus [22]) | Activity (Mus musculus [23])
206 µL/min/mg: CLH [5]
7.66 h: MRT [3]
12.7%: bioavailability [4]
active: Activity (Mus musculus [1]) | inhibition [7] | inhibition [8] | inhibition [9] | inhibition [10] | inhibition [11] | inhibition [12] | inhibition [13] | inhibition [14] | inhibition [15] | inhibition [16] Dose-dependent-effect | inhibition [17] Dose-dependent-effect | inhibition (Mus musculus [18]) | inhibition (Mus musculus [19]) | inhibition (Mus musculus [20]) | Activity (HEK293) | Activity (Mus musculus [25]) | Activity (Mus musculus [26]) | Activity (Mus musculus [27])
3.27 h: half-life [2]
Non-toxic: Activity (Mus musculus [24])
